# From article PMC3214660 (Cancer prevention research (Philadelphia, Pa.), 2011)
# Columns and labels:
# COX-2 in RAW264.7 cells = format: cell-based, murine
# mCOX-2 = biological target: T1, mCOX-2 (Mus musculus, UniProt Q05769); test: Enzyme-inhibitor binding kinetics, time-dependent inhibition of purified mCOX-2; format: biochemical; settings: mCOX-2, time-dependent inhibition
# T1 sequence (Q05769 18-604): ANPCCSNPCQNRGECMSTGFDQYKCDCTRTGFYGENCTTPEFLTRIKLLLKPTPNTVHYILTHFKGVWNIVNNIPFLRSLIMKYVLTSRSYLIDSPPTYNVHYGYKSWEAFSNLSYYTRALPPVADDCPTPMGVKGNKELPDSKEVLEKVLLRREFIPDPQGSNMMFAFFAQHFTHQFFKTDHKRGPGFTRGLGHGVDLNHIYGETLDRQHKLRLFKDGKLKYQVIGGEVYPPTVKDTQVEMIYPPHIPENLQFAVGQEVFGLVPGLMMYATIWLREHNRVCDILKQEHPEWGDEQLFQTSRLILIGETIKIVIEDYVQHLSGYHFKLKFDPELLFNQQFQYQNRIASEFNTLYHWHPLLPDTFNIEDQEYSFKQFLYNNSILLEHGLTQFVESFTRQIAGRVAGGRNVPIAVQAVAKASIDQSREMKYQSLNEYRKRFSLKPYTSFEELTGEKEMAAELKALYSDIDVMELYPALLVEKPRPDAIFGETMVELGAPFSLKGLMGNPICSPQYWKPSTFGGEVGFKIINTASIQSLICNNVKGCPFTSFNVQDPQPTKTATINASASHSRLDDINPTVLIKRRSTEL
# [1] = Tissue analysis for defluorination in rat footpads; format: in vivo, Sprague-Dawley rats; settings: compound 7 1 mg/kg i.p., 2 hours post dosing
SMILES,"Inhibition of COX-2 in intact RAW264.7 cells, in words (COX-2 in RAW264.7 cells; activated RAW264.7 cells, prostaglandin production)",dissociation rate k−2 (mCOX-2),inactivation rate k2 (mCOX-2),"KI, equilibrium constant for initial association (k−1/k1) (mCOX-2; 37 °C)","calculated extent of defluorination ([1]; rat footpad, n = 3)","amount in inflamed footpad ([1]; rat, LC-MS)","IC50 (COX-2 in RAW264.7 cells; Mus musculus, RAW264.7, 0.5 h, read-out: RAW246.7 Cells IC50 COX-2)"
Cc1ccc(-c2cc(CF)nn2-c2ccc(S(N)(=O)=O)cc2)cc1 [Compound 7],low nanomolar range,0.0003 s⁻¹,0.035 s⁻¹,7300 ± 1600 nM,8.8 ± 5.0%,486.3 pmol/g tissue,
"COc1ccc2c(c1)c(CC(=O)O)c(C)n2C(=O)c1ccc(Cl)cc1 [Indomethacin, reference compound]",,,,,,,10 nM
